Reference: ChEMBL document CHEMBL3414533, “Thiophene containing trisubstituted methanes [TRSMs] as identified lead against Mycobacterium tuberculosis” (Eur J Med Chem, 2015)
Values after ≈ are worked out from the molar mass of the structure shown. Active and inactive are the calls of the source. No cut-off for these calls is given here.

Legend:
[1] = system: Mycobacterium tuberculosis; experiment: Antimycobacterial activity against Mycobacterium tuberculosis H37Rv incubated at 37 degC for 4 weeks; format: functional; conditions: 672 h
[2] = Selectivity index, ratio of IC50 for African green monkey Vero C1008 cells to MIC for Mycobacterium tuberculosis H37Rv; format: toxicity, cell-based; conditions: read-out: Selectivity Index
[3] = Cytotoxicity against African green monkey Vero C1008 cells assessed as reduction in cell viability after 24 hrs by MTS assay; format: cell-based; conditions: Chlorocebus sabaeus
[4] = system: Mycobacterium tuberculosis; experiment: Antimycobacterial activity against Mycobacterium tuberculosis H37Rv infected in Swiss mouse assessed as lung bacterial colony forming units at 150 mg/kg, po dosed daily for 28 days measured up to day 40 (reference value: 31 10^7 CFU); format: functional
[5] = system: Mycobacterium tuberculosis; experiment: Antimycobacterial activity against Mycobacterium tuberculosis H37Rv infected in mouse bone-marrow derived macrophages assessed as reduction in intracellular colony forming units at 4 times antimycobacterial MIC measured during 3 hrs infection period; format: functional
[6] = system: Mycobacterium tuberculosis; experiment: Antimycobacterial activity against Mycobacterium tuberculosis H37Rv infected in Swiss mouse assessed as mouse survival level at 100 mg/kg, po dosed daily for 28 days measured up to day 40; format: functional
[7] = system: Mycobacterium tuberculosis; experiment: Antimycobacterial activity against Mycobacterium tuberculosis H37Rv infected in human blood monocyte derived macrophages assessed as reduction in intracellular colony forming units at 4 times antimycobacterial MIC measured during 3 hrs infection period; format: functional, organism-based
[8] = Protein binding in rat plasma by HPLC and LC-MS/MS method; format: ADME, cell-free; conditions: read-out: PPB (converted)
[9] = system: Mycobacterium tuberculosis; experiment: Antimycobacterial activity against Mycobacterium tuberculosis H37Rv infected in Swiss mouse assessed as reduction in lung bacterial colony forming units at 100 mg/kg, po dosed daily for 28 days measured up to day 40; format: functional
[10] = system: Mycobacterium tuberculosis; experiment: Bactericidal activity against Mycobacterium tuberculosis H37Rv infected in Swiss mouse assessed as microbial killing by measuring colony forming units at 100 mg/kg, po dosed daily for 28 days (reference value: 4800 CFU); format: functional
[11] = system: Mycobacterium tuberculosis; experiment: Antimycobacterial activity against Mycobacterium tuberculosis H37Rv infected in Swiss mouse assessed as median survival time at 100 mg/kg, po dosed daily for 28 days measured up to day 40; format: functional
[12] = system: Mycobacterium tuberculosis; experiment: Bactericidal activity against Mycobacterium tuberculosis H37Rv assessed as microbial killing by measuring colony forming units at 1 times and 4 times MIC level measured on day 14 (reference value: 1680 CFU); format: functional
[13] = system: Mycobacterium tuberculosis; experiment: Antimycobacterial activity against drug-sensitive Mycobacterium tuberculosis H37Rv by agar dilution method; format: functional
[14] = system: Mycobacterium tuberculosis; experiment: Antimycobacterial activity against Mycobacterium tuberculosis H37Rv infected in Swiss mouse assessed as lung bacterial colony forming units at 100 mg/kg, po dosed daily for 28 days measured up to day 40 (reference value: 31 10^7 CFU); format: functional
[15] = Mean residence time in rat by HPLC and LC-MS/MS method; format: ADME, organism-based; conditions: in vivo
[16] = system: Mycobacterium tuberculosis; experiment: Antimycobacterial activity against Mycobacterium tuberculosis H37Rv infected in human blood monocyte derived macrophages assessed as reduction in intracellular colony forming units at 4 times antimycobacterial MIC measured during 3 hrs infection period relative to control; format: functional
[17] = system: Mycobacterium tuberculosis; experiment: Bactericidal activity against Mycobacterium tuberculosis H37Rv infected in Swiss mouse assessed as microbial killing at 100 mg/kg, po dosed daily for 28 days; format: functional; conditions: 672 h
[18] = Elimination half life in rat by HPLC and LC-MS/MS method; format: ADME, organism-based; conditions: in vivo, read-out: beta t1/2 (converted)
[19] = Bioavailability in rat by HPLC and LC-MS/MS method; format: ADME, organism-based; conditions: in vivo
[20] = system: Mycobacterium tuberculosis; experiment: Antimycobacterial activity against Mycobacterium tuberculosis H37Rv infected in mouse bone-marrow derived macrophages assessed as reduction in intracellular colony forming units at 4 times antimycobacterial MIC measured during 3 hrs infection period relative to control; format: functional
[21] = system: Mycobacterium tuberculosis; experiment: Antimycobacterial activity against Mycobacterium tuberculosis H37Rv infected in Swiss mouse assessed as reduction in lung bacterial lesions at 100 mg/kg, po dosed daily for 28 days measured up to day 40 by Ziehl-Neelsen staining method; format: functional, organism-based; design: dose 100 mg/kg
[22] = system: Mycobacterium tuberculosis; experiment: Bactericidal activity against Mycobacterium tuberculosis H37Rv assessed as microbial killing at 1 times and 4 times MIC level measured on day 14; format: functional
[23] = system: Mycobacterium tuberculosis; experiment: Antimycobacterial activity against Mycobacterium tuberculosis H37Rv infected in Swiss mouse assessed as lung bacterial colony forming units at 10 mg/kg, po dosed daily for 28 days measured up to day 40 (reference value: 31 10^7 CFU); format: functional
[24] = system: Mycobacterium tuberculosis; experiment: Bactericidal activity against Mycobacterium tuberculosis H37Rv infected in Swiss mouse assessed as microbial killing by measuring colony forming units dosed orally daily for 28 days (reference value: 4800 CFU); format: functional

| Structure (SMILES) | MIC [1] [µg/mL] | selectivity ratio [2] | IC50 [3] [µg/mL] | other results |
| --- | --- | --- | --- | --- |
| CCN(CC)CCOc1ccc(C(c2cccc(Cl)c2)c2cccs2)cc1 (stereo not drawn) | 1.25 (≈ 3.13 µM) | < 10 | 10.1 (≈ 25.3 µM) |  |
| c1ccc(C(c2ccc(OCCN3CCCCCC3)cc2)c2cccs2)cc1 (stereo not drawn) | 3.1 (≈ 7.92 µM) | < 10 | 13 (≈ 33.2 µM) |  |
| CCN(CC)CCOc1ccc(C(c2cccs2)c2ccccc2F)cc1 (stereo not drawn) | 4.8 (≈ 12.5 µM) |  |  |  |
| NC(=O)c1cnccn1 [PYRAZINAMIDE] |  |  |  | Activity [4]: 1.9 ×10⁷ CFU; inhibition [5]: Active |
| Fc1cccc(C(c2ccc(OCCN3CCCCC3)cc2)c2cccs2)c1 (stereo not drawn) | 19.8 (≈ 50.1 µM) |  |  |  |
| COc1ccccc1C(c1ccc(OCCN2CCOCC2)cc1)c1cccs1 (stereo not drawn) | 10.2 (≈ 25 µM) |  |  |  |
| COc1ccccc1C(c1ccc(OCCN2CCCC2)cc1)c1cccs1 (stereo not drawn) | 25 (≈ 63.5 µM) |  |  |  |
| CN(C)CCOc1ccc(C(c2cccs2)c2ccccc2F)cc1 (stereo not drawn) | 17.8 (≈ 50.1 µM) |  |  |  |
| CN(C)CCOc1ccc(C(c2cccc(F)c2)c2cccs2)cc1 (stereo not drawn) | 17.8 (≈ 50.1 µM) |  |  |  |
| CC(C)N(CCOc1ccc(C(c2cccs2)c2ccccc2F)cc1)C(C)C (stereo not drawn) | 10.3 (≈ 25 µM) |  |  |  |
| Clc1cccc(C(c2ccc(OCCN3CCCC3)cc2)c2cccs2)c1 (stereo not drawn) | 2.49 (≈ 6.26 µM) | < 10 | 8.6 (≈ 21.6 µM) |  |
| Clc1cccc(C(c2ccc(OCCN3CCCCC3)cc2)c2cccs2)c1 (stereo not drawn) | 1.29 (≈ 3.13 µM) | < 10 | 8.7 (≈ 21.1 µM) |  |
| CCN(CC)CCOc1ccc(C(c2ccccc2)c2cccs2)cc1 (stereo not drawn) | 12.5 (≈ 34.1 µM) |  |  |  |
| CCN(CC)CCOc1ccc(C(c2cccc(F)c2)c2cccs2)cc1 (stereo not drawn) | 2.4 (≈ 6.26 µM) | < 10 | 5.8 (≈ 15.1 µM) |  |
| COc1ccccc1C(c1ccc(OCCN2CCCCC2)cc1)c1cccs1 (stereo not drawn) | 1.28 (≈ 3.14 µM) | < 10 | 9.2 (≈ 22.6 µM) |  |
| CSc1ccc(C(c2ccc(OCCN(C(C)C)C(C)C)cc2)c2cccs2)cc1 (stereo not drawn) | 1.57 (≈ 3.57 µM) | > 10 | 100 (≈ 227 µM) | Activity [6]: Active; inhibition [7]: Active; inhibition (percent reduction in intracellular colony forming units) [5]: >90% |
| Fc1ccccc1C(c1ccc(OCCN2CCCCC2)cc1)c1cccs1 (stereo not drawn) | 1.24 (≈ 3.13 µM) | < 10 | 3.9 (≈ 9.86 µM) |  |
| COc1ccc(C(c2ccc(OCCN(C(C)C)C(C)C)cc2)c2cccs2)cc1 (stereo not drawn) | 1.33 (≈ 3.14 µM) | > 10 | 100 (≈ 236 µM) | fraction unbound [8]: 0.4; survival at 100 mg/kg [6]: 42%; fold change (FC) [9]: 15; CFU [10]: 1200; inhibition [7]: Active; MST [11]: 7 days; CFU [12]: 0; MIC [13]: 3.12 µM (≈ 1.32 µg/mL); inhibition (percent reduction in intracellular colony forming units) [5]: >90%; Activity [14]: 2.2 ×10⁷ CFU; MRT [15]: 18 h; inhibition (INH) [16]: 81%; inhibition in vivo at 100 mg/kg [17]: 75%; half-life [18]: 9 h; bioavailability [19]: 45%; inhibition (INH) [20]: 96%; Activity [21]: Active; inhibition (INH) [22]: 100% |

| Structure (SMILES) | MIC [1] [µg/mL] | selectivity ratio [2] | IC50 [3] [µg/mL] | other results |
| --- | --- | --- | --- | --- |
| c1ccc(C(c2ccc(OCCN3CCCCC3)cc2)c2cccs2)cc1 (stereo not drawn) | 6.23 (≈ 16.5 µM) |  |  |  |
| Clc1cccc(C(c2ccc(OCCN3CCOCC3)cc2)c2cccs2)c1 (stereo not drawn) | 5.18 (≈ 12.5 µM) | < 10 | 23.4 (≈ 56.5 µM) |  |
| CCN(CC)CCOc1ccc(C(c2cccs2)c2ccccc2OC)cc1 (stereo not drawn) | 25 (≈ 63.2 µM) |  |  |  |
| CC[C@@H](CO)NCCN[C@@H](CC)CO [ETHAMBUTOL] |  |  |  | Activity [23]: 1.27 ×10⁷ CFU |
| COc1ccccc1C(c1ccc(OCCN2CCCCCC2)cc1)c1cccs1 (stereo not drawn) | 2.64 (≈ 6.26 µM) | < 10 | 12.7 (≈ 30.1 µM) |  |
| CSc1ccccc1C(c1ccc(OCCN(C)C)cc1)c1cccs1 (stereo not drawn) | 12.5 (≈ 32.6 µM) |  |  |  |
| CN(C)CCOc1ccc(C(c2cccc(Cl)c2)c2cccs2)cc1 (stereo not drawn) | 4.65 (≈ 12.5 µM) | < 10 | 10.8 (≈ 29 µM) |  |
| COc1ccccc1C(c1ccc(OCCN(C)C)cc1)c1cccs1 (stereo not drawn) | 9.19 (≈ 25 µM) |  |  |  |
| c1ccc(C(c2ccc(OCCN3CCOCC3)cc2)c2cccs2)cc1 (stereo not drawn) | 25 (≈ 65.8 µM) |  |  |  |
| CC(C)N(CCOc1ccc(C(c2cccc(Cl)c2)c2cccs2)cc1)C(C)C (stereo not drawn) | 1.34 (≈ 3.13 µM) | > 10 | 22 (≈ 51.4 µM) |  |
| Fc1ccccc1C(c1ccc(OCCN2CCOCC2)cc1)c1cccs1 (stereo not drawn) | 19.9 (≈ 50.1 µM) |  |  |  |
| Clc1ccc(C(c2ccc(OCCN3CCCCC3)cc2)c2cccs2)cc1 (stereo not drawn) | 0.78 (≈ 1.89 µM) | > 10 | 100 (≈ 243 µM) | Activity [6]: inactive; inhibition (percent reduction in intracellular colony forming units) [5]: >90% |
| CO[C@H]1/C=C/O[C@@]2(C)Oc3c(C)c(O)c4c(O)c(c(/C=N/N5CCN(C)CC5)c(O)c4c3C2=O)NC(=O)/C(C)=C\C=C\[C@H](C)[C@H](O)[C@@H](C)[C@@H](O)[C@@H](C)[C@H](OC(C)=O)[C@@H]1C [RIFAMPIN] |  |  |  | inhibition [5]: Active; CFU [24]: 2000 |
| NNC(=O)c1ccncc1 [ISONIAZID] |  |  |  | inhibition [7]: Active; inhibition [5]: Active; inhibition (INH) [16]: 84%; inhibition (INH) [20]: 93% |
| CCN(CC)CCOc1ccc(C(c2cccs2)c2ccccc2SC)cc1 (stereo not drawn) | 25 (≈ 60.7 µM) |  |  |  |
| Fc1ccccc1C(c1ccc(OCCN2CCCC2)cc1)c1cccs1 (stereo not drawn) | 19.1 (≈ 50.1 µM) |  |  |  |
| COc1ccccc1C(c1ccc(OCCN(C(C)C)C(C)C)cc1)c1cccs1 (stereo not drawn) | 25 (≈ 59 µM) |  |  |  |
| CC(C)N(CCOc1ccc(C(c2ccc(Cl)cc2)c2cccs2)cc1)C(C)C (stereo not drawn) | 1.56 (≈ 3.64 µM) | > 10 | 100 (≈ 234 µM) | Activity [6]: Active; inhibition (percent reduction in intracellular colony forming units) [5]: >90%; inhibition (INH) [16]: 88%; inhibition (INH) [20]: 94% |
